Assay results from the RepoRT retention time repository.

Assay: Agilent ZORBAX 300 SB-C18, 150 × 1 mm, 3.5 µm; A: water + 0.01% heptafluorobutyric acid; B: acetonitrile + 0.01% heptafluorobutyric acid; gradient (min/%B) 0/0 100/90
Conditions: stereoisomer not certain

SMILES | LC retention time
Cc1cccc(NC(=O)c2ccc3nccnc3c2)n1 | 9.62 min
Cn1c(=O)c(=O)n(CC(=O)c2ccc3c(c2)CCCC3)c2ccccc21 | 14.1 min
NC(=O)c1cc(O)c(O)c(O)c1 | 2.23 min
COC(=O)C(N)CO (stereo unspecified) | 4 min
Nc1ccc(-c2cccs2)cc1 | 10.5 min
COc1cc(N2C=C3N=C(c4ccccc4)NN3C=N2)cc(OC)c1OC | 12.1 min
O=C(O)CC(CC(=O)O)c1ccccn1 | 5.88 min
NCCCCCC(=O)O | 6.81 min
Cc1ccc(C(=O)c2ccc(CC(=O)O)n2C)cc1 | 10.5 min
CC1NC(=O)N(c2cccc(N)c2)C1=O (stereo unspecified) | 7.05 min
CCCc1cc(C(=O)O)ccn1 | 6.01 min
Cn1c(=O)c2cc(S(=O)(=O)O)ccc2n(C)c1=O | 5.36 min
C#CCNC | 3.51 min
C=Cc1ccccn1 | 6.97 min
c1cncc(-c2nn[nH]n2)c1 | 5.35 min
COCCc1ccc(OCC(O)CNC(C)C)cc1 (stereo unspecified) | 9.27 min
O=C(CNC(=O)c1ccco1)NN=Cc1ccco1 | 8.12 min
OCCCCNCc1ccccc1 | 7.61 min
CCN(CC)c1ccc(C(=O)NCC(C)C)cc1 | 11.7 min
NCc1ccccc1C(=O)O | 7 min
CC(=O)C=C(N)c1ccccc1 | 10.4 min
CCOC(=O)C(C(C)=NNC(=O)c1ccc(NC(C)=O)cc1)C(C)C (stereo unspecified) | 10.8 min

SMILES | LC retention time
COc1ccccc1CC(=O)Nc1cccc(C)c1 | 13.9 min
CCN(CC)c1ccc(N=Cc2ccc(N(CC)CC)cc2O)cc1 | 11.5 min
CCc1ccccc1NCC(=O)O | 11.1 min
O=c1[nH]c2ccccc2n1CCOc1ccccc1 | 12.2 min
CN1C2CCC1C(C(=O)O)C(OC(=O)c1ccccc1)C2 (stereo unspecified) | 8.54 min
C[N+](C)(C)CCOP(=O)(O)OP(=O)(O)OCC1OC(n2ccc(N)nc2=O)C(O)C1O (stereo unspecified) | 1.63 min
CCOc1cc(NC(C)=O)ccc1C(=O)NN=Cc1cccc(Oc2ccccc2)c1 | 14.3 min
CC(=O)N(C)c1ccc(O)cc1 | 7.68 min
NCCCOc1ccccc1 | 8.2 min
OCCCc1cn(-c2ccccc2)c2ccccc12 | 14.8 min
CN(C)CCCOc1nn(Cc2ccccc2)c2ccccc12 | 11.2 min
Cc1ccc(OC(=O)CCC(=O)N2CCN(C(=O)CCC(=O)Oc3ccc(C)cc3)CC2)cc1 | 14.3 min
CN(CCc1ccccn1)Cc1ccccn1 | 7.79 min
COC(=O)c1ccc(NC(=O)Nc2cccc3ccccc23)cc1 | 14.3 min
CCCCSCCSC(=N)N | 9.27 min
CCCOC(=O)C1CCCCN1 (stereo unspecified) | 7.95 min
CCCCN(CC)CC | 7.73 min
Oc1ccc2c(c1)C13CCCCC1(O)C(C2)NCC3 (stereo unspecified) | 8.57 min
Cc1ccc(N)cc1 | 7.62 min
CC(=O)c1cc2ccccc2oc1=O | 10.8 min
COC(=O)c1c[nH]c2ccccc12 | 10.9 min
CCN(CC)CCCO | 6.01 min

SMILES | LC retention time
CN(C)c1cccc(C(=O)O)c1 | 8.69 min
CNC1CCCCC1NC (stereo unspecified) | 7.14 min
CCCCCCCCSCCSC(=N)N | 12.7 min
O=c1c(C=NCc2ccco2)c(NCc2ccco2)nc2ccccn12 | 11.2 min
Cc1ccccc1C(=O)NC1CC(C)(C)NC(C)(C)C1 | 8.46 min
NCCCNCCN | 7.42 min
CCN(Cc1ccncc1)C(=S)NCCc1ccccc1 | 10.2 min
COC(=O)C1CCCNC1=O (stereo unspecified) | 6.61 min
O=C1CNCC(=O)N1CCc1ccccc1 | 9.32 min
C=CCN(C)CC=C | 6.98 min
Cc1ccc(CN)cc1 | 7.92 min
C[N+]1(C)CCCCC1 | 5.95 min
CCOC(=O)c1c(N)n(C(C)=O)[nH]c1=O | 6.93 min
COC(=O)c1nnc(-c2ccccc2)c(-c2ccccc2)n1 | 13.6 min
CN(C)c1ccc(CNC2CC(C)(C)NC(C)(C)C2)cc1 | 8.12 min
O=C(O)C1CCCc2c1[nH]c1ccccc21 (stereo unspecified) | 12.3 min
CN1C(=O)CC(CN)c2ccccc21 (stereo unspecified) | 7.58 min
CC1=NC(=Cc2ccccc2)C(=O)O1 | 9.16 min
Nc1ccccc1NCCOc1ccccc1 | 11 min
O=S(=O)(O)CCCN1CCOCC1 | 1.67 min
COc1ccc(C(=O)NCC(=O)NN)cc1OC | 7.29 min
Cn1cc(C(=O)O)c2ccccc21 | 9.81 min

SMILES | LC retention time
O=C(O)c1ccc(=O)[nH]c1 | 4.42 min
Cn1c(C(c2ccccc2)c2ccccc2)n[nH]c1=S | 12.9 min
Nc1ccc2[nH]c3c(c2c1)CCCC3 | 8.89 min
Cc1nn(-c2ccc(NC(=O)c3ccco3)cc2)c(=O)c2ccccc12 | 12 min
O=C(O)CC(NCc1ccccc1)C(=O)O (stereo unspecified) | 6.19 min
CN(C(=O)CCCN1C(=O)c2ccccc2C1=O)C1CC(C)(C)N(C)C(C)(C)C1 | 9.02 min
CC(=O)Oc1ccccc1C(=O)NC(C)(C)C | 11.2 min
CCNC(=S)N1CCCC(C(N)=O)C1 (stereo unspecified) | 7.41 min
Nc1cccc2cc[nH]c12 | 8.08 min
O=C1Nc2ccccc2C1CCCO (stereo unspecified) | 8.22 min
CC(C)(C)c1ccc(-c2nnnn2-c2ccccc2)cc1 | 16.8 min
O=C(Nc1ccc(C(=O)c2ccccc2)cc1)c1ccc(-c2ccccc2)cc1 | 17.8 min
O=C(NCCNC(=O)c1ccccn1)c1ccccn1 | 8.71 min
COc1ccccc1-n1c(=O)n2n(c1=O)CCCC2 | 9.12 min
CCCCNC(=O)c1c[nH]c2ccccc2c1=O | 12.9 min
C=CCN1CCC23c4c5ccc(O)c4OC2C(O)C=CC3C1C5 (stereo unspecified) | 8.18 min
CCn1c2ccccc2c2cc(N)ccc21 | 9.76 min
Nc1ncnc2ccccc12 | 6.84 min
CN(C)CCN(C)CCN(C)CCN(C)C | 7.61 min
CNCCO | 2.61 min
Cc1cc(C)cc(-c2nnc(-c3ccc(-c4ccccc4)cc3)o2)c1 | 20.5 min
O=C1CC(Nc2ccc3ccccc3c2)C(=O)N1c1cccc2ccccc12 (stereo unspecified) | 15.7 min

SMILES | LC retention time
CCCCCCCCCCCC(N)=O | 16.7 min
CC(C)C(C)N (stereo unspecified) | 6.98 min
CCNCC(O)CC (stereo unspecified) | 6.36 min
c1ccc(-c2cc3cc4c(cc3[nH]2)OCO4)cc1 | 15.1 min
CC1C(=O)CC[N+](C)(C)C1C (stereo unspecified) | 7.63 min
CC[N+](CC)(CC)CCOc1cccc(OCC[N+](CC)(CC)CC)c1OCC[N+](CC)(CC)CC | 8.44 min
NCCCCCCCCCCCCN | 8.26 min
c1cc2c(cc1NC1=NCCCCC1)OCCO2 | 9.12 min
C1CN(CCN2CCOCC2)CCO1 | 6.81 min
Cc1cc(=O)[nH]c(N)n1 | 5.97 min
CC(=O)Nc1ccc(CCC(=O)O)cc1 | 7.92 min
COc1ccc(OC)c2c1C(c1cccc(N)c1)OC1CCCCC21 (stereo unspecified) | 12.9 min
COC(=O)Cn1c(=O)n(C)c2c(=O)n(C)c(=O)n(C)c21 | 8.93 min
CC(C)CNC(=O)C(=O)NC1CC(C)(C)NC(C)(C)C1 | 8.6 min
CCC(C)N1CNc2c(c(=O)[nH]c(=O)n2Cc2ccccc2)C1 (stereo unspecified) | 8.19 min
CC1CC(O)(CC(O)(c2ccccc2)c2ccccc2)C(C)CN1C (stereo unspecified) | 10.2 min
O=C(c1cncc(C(=O)N2CCC(Cc3ccccc3)CC2)c1)N1CCC(Cc2ccccc2)CC1 | 17.1 min
Cc1ccc(-c2ccccc2)nc1C | 8.93 min
Nc1cccc2c1C(=O)c1cccc(N)c1C2=O | 12.6 min
Cc1cncc(C)n1 | 7.44 min
Cc1cccc(C)c1NC(=S)Nc1ccccc1 | 13.1 min
Cc1cc(C)c(C=CC(=O)c2cccs2)c(C)c1 | 18.2 min

SMILES | LC retention time
O=C1NC(=O)C(c2ccccc2)(c2ccc(O)cc2)N1 (stereo unspecified) | 9.15 min
CNc1cnccn1 | 6.32 min
CC(=O)C1C(=O)C=C(c2ccco2)CC1c1ccco1 (stereo unspecified) | 13.2 min
CCNC(=O)CC(=O)NCC | 5.95 min
CCOC(=O)C1=C(C(=O)OC)CN(c2ccccc2)N1 | 13.7 min
COC(=O)c1ccc(NC(=O)Cn2nc(C)c3ccccc3c2=O)cc1 | 11.9 min
Cc1ccc(-n2cccc2)c(O)c1 | 13.1 min
CN1C2CC(OC(=O)C(CO)c3ccccc3)CC1C1OC12 (stereo unspecified) | 8.47 min
CCCC(C)N (stereo unspecified) | 7.09 min
CN(C)CCCNCCCN | 7.35 min
Cc1ccccc1NCC(=O)Nc1c(C)cccc1C | 13.8 min
Cc1nnc(Oc2ccccc2)c2ccccc12 | 10.8 min
CC(C)c1cccc(C(C)C)c1NC(=O)COC(=O)CNC(=O)c1ccc(C(C)(C)C)cc1 | 17.6 min
Cc1ccc(-c2nc3ccccc3s2)cc1 | 17.9 min
CCCCCCCCCCn1c(CCC)nc2ccccc21 | 15.6 min
O=c1c2ccccc2nc(-c2ccccc2)n1-c1ccccc1 | 13.8 min
CC(=NNC(=O)C[n+]1ccccc1)c1ccccc1 | 8.76 min
CCCCCCn1c2ccccc2c2cc(C(=O)O)ccc21 | 17.8 min
O=C(CC1NC(=O)N(C2CCCCC2)C1=O)Nc1cccnc1 (stereo unspecified) | 9.1 min
CC(C)CC(NC(=O)CN)C(=O)O (stereo unspecified) | 7.75 min
OC12CC(Cc3cccnc31)c1ccccc12 (stereo unspecified) | 8.39 min
